Measurements from the NIST ThermoML archive (doi:10.1021/je050116g).

Columns and labels:
[1] = relative permittivity at various frequencies (dimensionless); xn = mol fraction of the nth substance listed; conditions: 298.15 K, 101.33 kPa, Liquid, Frequency=0.03 MHz, Parallel plate capacitor
[2] = xn = mol fraction of the nth substance listed; conditions: 298.15 K, 101.33 kPa, Liquid
[3] = 298.15 K; 101.33 kPa; Liquid

CCCCCCCCCCCC [dodecane] + CO
Conditions	mass density [kg/m3]	relative permittivity
[1], x2 = 0.000771	–	2.00822
[1], x2 = 0.001621	–	2.00927
[1], x2 = 0.00274	–	2.01066
[1], x2 = 0.003489	–	2.01159
[1], x2 = 0.004562	–	2.01293
[1], x2 = 0.005874	–	2.01448
[1], x2 = 0.008056	–	2.01694
[1], x2 = 0.01061	–	2.01951
[1], x2 = 0.0131	–	2.02187
[1], x2 = 0.01491	–	2.0235
[1], x2 = 0.01897	–	2.02697
[1], x2 = 0.02456	–	2.03155
[1], x2 = 0.03063	–	2.03644
[1], x2 = 0.03798	–	2.04263
[1], x2 = 0.04663	–	2.05023
[1], x2 = 0.05524	–	2.05834
[1], x2 = 0.06621	–	2.06954
[1], x2 = 0.08007	–	2.08561
[2], x2 = 0.00135	745.406	–
[2], x2 = 0.00185	745.4	–
[2], x2 = 0.00406	745.379	–
[2], x2 = 0.00925	745.332	–
[2], x2 = 0.01113	745.324	–
[2], x2 = 0.01828	745.284	–
[2], x2 = 0.02969	745.265	–
[2], x2 = 0.0464	745.259	–
[2], x2 = 0.0642	745.271	–
[2], x2 = 0.08321	745.289	–
[2], x2 = 0.09518	745.306	–

CCO [ethanol]
Conditions	mass density [kg/m3]
[3]	785.055

CCCCCCCO [heptan-1-ol]
Conditions	mass density [kg/m3]
[3]	818.746

CCCCCCCO [heptan-1-ol] + CCCCCCCCCCCC
Conditions	mass density [kg/m3]	relative permittivity
[1], x1 = 0.000586	–	2.00786
[1], x1 = 0.001199	–	2.00865
[1], x1 = 0.001873	–	2.00953
[1], x1 = 0.002621	–	2.01049
[1], x1 = 0.003507	–	2.01164
[1], x1 = 0.004712	–	2.01319
[1], x1 = 0.006033	–	2.01489
[1], x1 = 0.007493	–	2.0167
[1], x1 = 0.009131	–	2.01867
[1], x1 = 0.01103	–	2.02082
[1], x1 = 0.01345	–	2.02338
[1], x1 = 0.01639	–	2.02628
[1], x1 = 0.02108	–	2.03055
[1], x1 = 0.02571	–	2.03449
[1], x1 = 0.03171	–	2.03943
[1], x1 = 0.0379	–	2.0444
[1], x1 = 0.04415	–	2.0494
[1], x1 = 0.0517	–	2.05543
[1], x1 = 0.06004	–	2.06219
[1], x1 = 0.07079	–	2.07111
[1], x1 = 0.08135	–	2.08016
[1], x1 = 0.09339	–	2.09089
[1], x1 = 0.1085	–	2.10505
[2], x1 = 0.00183	745.491	–
[2], x1 = 0.00384	745.55	–
[2], x1 = 0.00719	745.657	–
[2], x1 = 0.01509	745.934	–
[2], x1 = 0.02602	746.357	–
[2], x1 = 0.03537	746.74	–
[2], x1 = 0.04943	747.341	–
[2], x1 = 0.06486	748.019	–
[2], x1 = 0.08181	748.778	–
[2], x1 = 0.1023	749.709	–

CCCCCCO [hexan-1-ol]
Conditions	mass density [kg/m3]
[3]	815.275
